Results from patent US20070275968A1, “Substituted Biphenyl Derivative” (priority 2004, published 2007).
Like-named read-outs stand apart in the source and are kept apart here.

Legend:
NRK-49F cells = assay: Collagen synthesis inhibition test; assay type: cell-based; conditions: 25 ng/mL TGF-β added, cultured about 44 hr, 3H-labeled proline taken into collagen, no TGF-β = 100% inhibition, no test compound = 0% inhibition, read-out: Collagen synthesis inhibiting activity IC50
Experimental: Collagen Synthesis Inhibition Test
Collagen synthesis inhibiting activity was evaluated by the following assay.
NRK-49F cells (Dainippon Pharmaceutical) are seeded into a 96-well plate. After becoming confluent, the medium is changed to a serum-free Dulbecco's modified MEM medium (Invitrogen) containing 5 μg/mL insulin, 5 μg/mL transferin, and 5 ng/mL selenious acid. One day later, the medium is changed to a serum-free Dulbecco's modified MEM medium (80 μl) containing 10 ng/mL IGF-II (Sigma) and 50 μg/mL L-ascorbic acid (Sigma), and a ten times concentration of a test compound (10 μl) is added thereto. Thirty minutes later, 25 ng/mL TGF-β (R&D System: 10 μL) is added to the medium, and the cells are cultured for about 44 hr. Twenty four hours before the termination of the culturing, ^3H-labeled proline (Amersham: 1 μCi) is added so as to be taken into collagen in the cells. When the culturing is terminated, 30% trichloroacetic acid (50 μL) is added to the medium. After leaving for 20 min, proteins are precipitated by centrifugation at 3000 rpm for 10 min. The supernatant is removed, and the residue is twice washed with 200 μL of a washing solution (ethanol:ether=3:1). The precipitate is air-dried, and the washing solution is sufficiently removed. After addition of 60 μL of a collagenase solution (2 mg/mL collagenase VII (Sigma), 50 mM Tris-HCl (pH 7.4), 5 mM CaCl2), the resulting mixture is treated at 37° C. for 2 hr to decompose collagen. Then, 90 μL of 15% trichloroacetic acid and 5% tannic acid are added thereto. The resulting mixture is left for 20 min and then centrifuged at 3000 rpm for 10 min. The supernatant (50 μL) is transferred to LumaPlate (PerkinElmer Lifescience) and is air-dried. Then, the amount of ^3H is measured by a Top Count.

Row | IC50 (NRK-49F cells; Rattus norvegicus) [nM] | melting point [°C] | Compound | IC50 (NRK-49F cells) [nM]
1 | 230 | 119 to 123 | Cc1cccc(-c2[nH]c(C(C)C)nc2-c2ccc(F)c(-c3ccc4c(c3)CCS4(=O)=O)c2)n1 [Example 125, 2-{4-[3-(1,1-Dioxido-2,3-dihydro-1-benzothien-5-yl)-4-fluorophenyl]-2-isopropyl-1H-imidazol-5-yl}-6-methylpyridine] | –
2 | 10 | 155 to 156 | Cc1cccc(-c2n[nH]cc2-c2ccc(F)c(-c3cnn(C)c3)c2)n1 [Example 195, 2-{4-[4-Fluoro-3-(1-methyl-1H-pyrazol-4-yl)phenyl]-1H-pyrazol-3-yl}-6-methylpyridine] | –
3 | 20 | 162 to 164 | Cc1cccc(-c2n[nH]cc2-c2ccc(F)c(-c3cc[nH]c3)c2)n1 [Example 189, 2-{4-[4-Fluoro-3-(1H-pyrrol-3-yl)phenyl]-1H-pyrazol-3-yl}-6-methylpyridine] | –
4 | 10 | 229 to 233 | Cc1cccc(-c2n[nH]cc2-c2ccc(F)c(-c3c[nH]cn3)c2)n1 [Example 206, 2-{4-[4-Fluoro-3-(1H-imidazol-4-yl)phenyl]-1H-pyrazol-3-yl}-6-methylpyridine] | –
5 | 50 | 248 | Cc1cccc(-c2n[nH]cc2-c2ccc(F)c(-c3cn(CCO)cn3)c2)n1 [Example 177, 2-(4-{2-Fluoro-5-[3-(6-methylpyridin-2-yl)-1H-pyrazol-4-yl]phenyl}-1H-imidazol-1-yl)ethanol] | –
6 | 350 | 104 to 106 | Cc1cccc(-c2[nH]c(C(C)C)nc2-c2cccc(-c3ccc(S(C)(=O)=O)cc3)c2)n1 [Example 17, 2-{2-Isopropyl-4-[4′-(methylsulfonyl)-1,1′-biphenyl-3-yl]-1H-imidazol-5-yl}-6-methylpyridine] | –
7 | 1490 | – | Cc1cccc(-c2[nH]c(C(C)C)nc2-c2cccc(-c3ccc(C(=O)NN4CCN(C)CC4)cc3)c2)n1 [Example 48, N-(4-Methylpiperazin-1-yl)-4-{3-[2-isopropyl-5-(6-methylpyridin-2-yl)-1H-imidazol-4-yl]phenyl}benzamide] | –
8 | 30 | – | Cc1cccc(-c2n[nH]cc2-c2ccc(F)c(-c3cnn(CCO)c3)c2)n1 [Example 162, 2-(4-{2-Fluoro-5-[3-(6-methylpyridin-2-yl)-1H-pyrazol-4-yl]phenyl}-1H-pyrazol-1-yl)ethanol] | –
9 | 70 | 268 to 270 | Cc1cccc(-c2[nH]c(C(C)C)nc2-c2ccc(F)c(-c3c[nH]cn3)c2)n1 [Example 137, 2-{4-[4-Fluoro-3-(1H-imidazol-4-yl)phenyl]-2-isopropyl-1H-imidazol-5-yl}-6-methylpyridine] | –
10 | 20 | 168 to 169 | Cc1cccc(-c2n[nH]cc2-c2ccc(F)c(-c3cn(C)cn3)c2)n1 [Example 172, 2-{4-[4-Fluoro-3-(1-methyl-1H-imidazol-4-yl)phenyl]-1H-pyrazol-3-yl}-6-methylpyridine] | –
11 | 10 | 110 to 112 | Cc1cccc(-c2n[nH]cc2-c2ccc(F)c(-c3cn[nH]c3)c2)n1 [Example 194, 2-{4-[4-Fluoro-3-(1H-pyrazol-4-yl)phenyl]-1H-pyrazol-3-yl}-6-methylpyridine] | –
12 | 20 | 68 to 70 | Cc1cccc(-c2n[nH]cc2-c2ccc(F)c(-c3ccc(CN4CCOCC4)cn3)c2)n1 [Example 181, 4-[(6-{2-Fluoro-5-[3-(6-methylpyridin-2-yl)-1H-pyrazol-4-yl]phenyl}pyridin-3-yl)methyl]morpholine] | –
13 | 40 | 115 to 118 | Cc1cccc(-c2n[nH]cc2-c2ccc(F)c(-c3ccc(S(N)(=O)=O)cc3)c2)n1 [Example 190, 2′-Fluoro-5′-[3-(6-methylpyridin-2-yl)-1H-pyrazol-4-yl]-1,1′-biphenyl-4-sulfonamide] | –
14 | 520 | 130 to 132 | Cc1cccc(-c2[nH]c(C(C)C)nc2-c2ccc(F)c(-c3ccc(C(=O)NC4CCOCC4)cc3)c2)n1 [Example 65, N-(Tetrahydropyran-4-yl)-4-{2-fluoro-5-[2-isopropyl-5-(6-methylpyridin-2-yl)-1H-imidazol-4-yl]phenyl}benzamide] | –
15 | 10 | 153 to 155 | Cc1cccc(-c2nc(N)sc2-c2ccc(F)c(-c3cnn(C)c3)c2)n1 [Example 217, 5-[4-Fluoro-3-(1-methyl-1H-pyrazol-4-yl)phenyl]-4-(6-methylpyridin-2-yl)-1,3-thiazol-2-amine] | –
16 | 190 | 169 to 172 | Cc1cccc(-c2n[nH]cc2-c2ccc(F)c(-c3ccc(C(C)(C)O)cn3)c2)n1 [Example 160, 2-(6-{2-Fluoro-5-[3-(6-methylpyridin-2-yl)-1H-pyrazol-4-yl]phenyl}pyridin-3-yl)propan-2-ol] | –
17 | – | – | Cc1cccc(-c2nc(C(C)C)[nH]c2-c2ccc(F)c(-c3ccc(CN4CCOCC4)cc3)c2)n1 [Example 109] | 130
18 | 10 | 205 | Cc1cccc(-c2nc[nH]c2-c2ccc(F)c(-c3cnn(C)c3)c2)n1 [Example 121, 2-{5-[4-Fluoro-3-(1-methyl-1H-pyrazol-4-yl)phenyl]-1H-imidazol-4-yl}-6-methylpyridine] | –
19 | 180 | 100 to 103 | Cc1cccc(-c2[nH]c(C(C)C)nc2-c2ccc(F)c(-c3cn(C)cn3)c2)n1 [Example 130, 2-{4-[4-Fluoro-3-(1-methyl-1H-imidazol-4-yl)phenyl]-2-isopropyl-1H-imidazol-5-yl}-6-methylpyridine] | –
20 | 790 | 245 to 246 | Cc1cccc(-c2[nH]c(C(C)C)nc2-c2ccc(F)c(-c3ccc(S(N)(=O)=O)cc3)c2)n1 [Example 127, 2′-Fluoro-5′-[2-isopropyl-5-(6-methylpyridin-2-yl)-1H-imidazol-4-yl]-1,1′-biphenyl-4-sulfonamide] | –
21 | 100 | 135 to 137 | Cc1cccc(-c2n[nH]cc2-c2ccc(F)c(-c3c[nH]c(C(C)(C)O)n3)c2)n1 [Example 161, 2-(4-{2-Fluoro-5-[3-(6-methylpyridin-2-yl)-1H-pyrazol-4-yl]phenyl}-1H-imidazol-2-yl)propan-2-ol] | –
22 | 290 | 128 | NS(=O)(=O)c1ccc(-c2cc(-c3c[nH]nc3-c3ccccn3)ccc2F)cc1 [Example 202, 2′-Fluoro-5′-(3-pyridin-2-yl-1H-pyrazol-4-yl)-1,1′-biphenyl-4-sulfonamide] | –
23 | 50 | 219 to 220 | Cc1cccc(-c2n[nH]cc2-c2ccc(F)c(-c3c[nH]c(CCO)n3)c2)n1 [Example 209, 2-(4-{2-Fluoro-5-[3-(6-methylpyridin-2-yl)-1H-pyrazol-4-yl]phenyl}-1H-imidazol-2-yl)ethanol] | –
24 | – | – | Cc1cccc(-c2cn(C(C)C)nc2-c2ccc(F)c(-c3cn[nH]c3)c2)n1 [Example 112, 2-{5-[4-Fluoro-3-(1H-pyrazol-4-yl)phenyl]-2-isopropyl-1H-pyrazol-4-yl}-6-methylpyridine] | 30
25 | 100 | – | CNS(=O)(=O)c1ccc(-c2cc(-c3c[nH]nc3-c3cccc(C)n3)ccc2F)cc1 [Example 156, 2′-Fluoro-N-methyl-5′-[3-(6-methylpyridin-2-yl)-1H-pyrazol-4-yl]-1,1′-biphenyl-4-sulfonamide] | –
